Laboratory results published in patent EP2457593A1, “Cyclic RGD peptides of amino acids based on thiazoles or oxazoles as selective antagonists of the alpha-v beta-3 integrin” (Lykera Biomed S.A., priority 2010, dated 2012).

What was measured:
HUVEC (αvβ3/αvβ5) = test: Cell adhesion inhibition, vitronectin (VN) as ligand, HUVEC; format: cell-based, human; details: coating 0.75 µg/ml, read-out: Adhesion inhibition - EC-50
Procedure: (§1) Biological experiments. Cells were grown in DMEM High Glucose (GIBCO, Ref: 31966), supplemented with 10% FCS (GIBCO, 10106-169) at 37°C and 5% CO2. Cells were expanded when they reached 90% confluence. Non-tissue culture treated ELISA plates were coated at 4°C with the appropriate concentration of the ligand (depending on the cell line). The coating solution was discarded and the wells were blocked with blocking solution (1.5% BSA; 60 minutes at 37°C). The blocking solution was discarded by flicking and serial dilutions of the compounds were plated in duplicates. Immediately, harvested cells were plated at a given concentration (20000-25000 /well for HUVEC and DAOY and 50000 for HT-29) to the same plate. Plates were incubated for 60-90 min at 37°C to allow cell adhesion and spreading on the ligands. Plates were washed three times with PBS and 100 µl/well of Hexosaminidase Substrate solution was added. Plates were incubated at 37°C during 3 hours and then stop solution was added. Adsorption was read at OD 405nm.
(§2) Each plate contains positive and negative controls and peptides were tested as duplicates. Each assay has been repeated at least twice and the adhesion inhibition EC50 was calculated, when possible, using the Prism-4 software based on the sigmoidal dose-response (variable slope) equation.
(§3) The different RDG derivates based on thiazole-amino acid structures were tested for their biological activity such as inhibition of cell adhesion using three different cell systems and three integrin ligands for each cell line (vitronectin (VN), fibrinogen (FB) and fibronectin (FN) and collagen (COL)). The cell lines used for the study were: DAOY human […] cells and HUVEC human umbilical vein endothelial cells as primary cell culture, which overexpresses in both members, αvβ3 and αvβ5, of the αv-integrin family, and HT29 human colon adenocarcinoma, which overexpresses in both members, αvβ5 and αvβ6, of the αv-integrin family.
(§4) In the experiments using VN as integrin ligand, both HUVEC and DAOY cells use αvβ3 and αvβ5 to adhere to VN; while HT29 cells use only αvβ5 to adhere to VN. In contrast, in the experiments using FB as integrin ligands, both HUVEC and DAOY cells use αvβ3 to adhere to FB, and the experiments using FN and COL were to control that the compounds could no inhibit the independent cell adhesion.

DAOY (αvβ3 /αvβ5) = test: Cell adhesion inhibition, vitronectin (VN) as ligand, DAOY; format: cell-based, human; details: coating 0.5 µg/ml, read-out: Adhesion inhibition - EC-50
Procedure: as §1, §2
as §3, with “family. […]” for “family.”

HT-29 (αvβ5) = test: Cell adhesion inhibition, vitronectin (VN) as ligand, HT-29; format: cell-based, human; details: for blocking activity against αvβ5: HT29-VN cell system; for EC50: VN ligand, HT-29, coating 4.0 µg/ml, read-out: Adhesion inhibition - EC-50
Procedure: as §1, §2, §3, §4

HUVEC (αvβ3) = HUVEC (αvβ3) (Homo sapiens, UniProt P05106+P06756); test: Cell adhesion inhibition, fibrinogen (FB) as ligand, HUVEC; format: cell-based; details: from adhesion of the HUVEC and DAOY cells to FB
DAOY (αvβ3) = test: Cell adhesion inhibition, fibrinogen (FB) as ligand, DAOY; format: cell-based, human; details: coating 5.0 µg/ml, read-out: Adhesion inhibition - EC-50
Procedure: as §1, §2
as §3, with “family. […]” for “family.”

HUVEC cell line [1] = test: Inhibition of cell adhesion, first series of experiments, HUVEC cell line (ligand not specified); format: cell-based, human; details: for biological activity (inhibition of cell adhesion), in words: HUVEC cell line, first series of experiments
Procedure: as §1, §2, §3
In the first series of experiments compounds 1-5 were tested using HUVEC cell line showing that only compounds 4 and 5 were active.

HUVEC cell line [2] = test: Cell adhesion inhibition, fibronectin (FN) as ligand (αv-integrin independent control), HUVEC; format: cell-based, human
Procedure: (§5) Figure 1. […] A) Using vitronectin (VN) as ligand. B) Using fibrinogen (FB) as ligand. Figure 2. […] Figure 3. […] A) Using fibronectin (FN) as ligand. B) Using collagen (COL) as ligand.
as §1, with “Plates were washed three times with PBS and 100 µl/well of Hexosaminidase Substrate solution was added. Plates were incubated at 37°C during 3 hours and then stop solution was added.” left out
(§6) Each plate contains positive and negative controls and peptides were tested as duplicates. Each assay has been repeated at least twice and the adhesion inhibition EC50 was calculated, when possible, using the Prism-4 software based on the sigmoidal dose-response (variable slope) equation. […]

HUVEC cell line [3] = test: Cell adhesion inhibition, collagen (COL) as ligand (αv-integrin independent control), HUVEC; format: cell-based, human
Procedure: as §5
as §1, with “Plates were washed three times with PBS and 100 µl/well of Hexosaminidase Substrate solution was added. Plates were incubated at 37°C during 3 hours and then stop solution was added.” left out
as §6

Chain of HUVEC (αvβ3) (P06756 31-1048): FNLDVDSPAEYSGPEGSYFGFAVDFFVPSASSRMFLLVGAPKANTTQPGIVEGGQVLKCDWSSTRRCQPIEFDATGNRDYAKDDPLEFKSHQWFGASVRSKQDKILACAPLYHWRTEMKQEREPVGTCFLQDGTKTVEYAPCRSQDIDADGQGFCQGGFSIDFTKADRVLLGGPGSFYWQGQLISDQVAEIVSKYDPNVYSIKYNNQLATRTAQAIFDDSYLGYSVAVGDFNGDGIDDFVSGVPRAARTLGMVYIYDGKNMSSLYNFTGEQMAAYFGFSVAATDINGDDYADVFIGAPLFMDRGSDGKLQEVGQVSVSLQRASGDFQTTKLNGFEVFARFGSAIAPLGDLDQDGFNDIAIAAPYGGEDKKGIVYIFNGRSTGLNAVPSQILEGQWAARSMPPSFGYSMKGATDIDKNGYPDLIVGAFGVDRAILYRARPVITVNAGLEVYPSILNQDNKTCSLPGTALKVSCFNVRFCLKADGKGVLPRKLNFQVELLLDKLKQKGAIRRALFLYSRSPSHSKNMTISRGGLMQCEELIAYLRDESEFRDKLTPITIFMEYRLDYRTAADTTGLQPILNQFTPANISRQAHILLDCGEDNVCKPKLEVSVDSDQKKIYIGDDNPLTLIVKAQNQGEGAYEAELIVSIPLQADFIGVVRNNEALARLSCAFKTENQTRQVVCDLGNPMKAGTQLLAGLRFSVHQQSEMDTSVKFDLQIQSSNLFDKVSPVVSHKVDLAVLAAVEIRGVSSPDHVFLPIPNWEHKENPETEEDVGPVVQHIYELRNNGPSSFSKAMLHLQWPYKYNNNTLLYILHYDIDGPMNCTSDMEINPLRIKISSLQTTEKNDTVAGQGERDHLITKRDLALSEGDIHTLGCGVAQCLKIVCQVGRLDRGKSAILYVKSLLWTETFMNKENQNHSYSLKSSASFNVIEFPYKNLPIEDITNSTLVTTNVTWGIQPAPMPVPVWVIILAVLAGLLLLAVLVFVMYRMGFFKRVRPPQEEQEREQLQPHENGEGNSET
Chain of HUVEC (αvβ3) (P05106 27-788): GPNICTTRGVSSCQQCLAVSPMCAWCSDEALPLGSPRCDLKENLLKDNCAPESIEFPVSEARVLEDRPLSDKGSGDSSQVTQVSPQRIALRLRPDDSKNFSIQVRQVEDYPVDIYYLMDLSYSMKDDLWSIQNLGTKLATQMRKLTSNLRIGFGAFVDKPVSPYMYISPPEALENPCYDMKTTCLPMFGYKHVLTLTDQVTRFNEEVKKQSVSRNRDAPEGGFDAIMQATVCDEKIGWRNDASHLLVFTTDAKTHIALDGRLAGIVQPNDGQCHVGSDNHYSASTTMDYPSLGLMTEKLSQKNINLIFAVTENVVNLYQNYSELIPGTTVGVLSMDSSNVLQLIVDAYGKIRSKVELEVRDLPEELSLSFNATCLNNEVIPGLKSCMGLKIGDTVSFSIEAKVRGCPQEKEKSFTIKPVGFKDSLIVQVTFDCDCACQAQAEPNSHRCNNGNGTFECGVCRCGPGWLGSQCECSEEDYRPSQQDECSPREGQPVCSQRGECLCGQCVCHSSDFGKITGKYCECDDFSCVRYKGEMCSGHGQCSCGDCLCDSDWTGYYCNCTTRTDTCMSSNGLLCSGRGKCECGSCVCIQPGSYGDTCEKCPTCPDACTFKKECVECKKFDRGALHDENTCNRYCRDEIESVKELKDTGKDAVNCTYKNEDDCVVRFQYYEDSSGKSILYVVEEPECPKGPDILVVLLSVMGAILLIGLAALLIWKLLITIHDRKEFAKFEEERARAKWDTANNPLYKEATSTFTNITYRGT

SMILES | EC50 (HUVEC (αvβ3/αvβ5)) [µM] | EC50 (DAOY (αvβ3 /αvβ5)) [µM] | blocking activity against αvβ5 (HT-29 (αvβ5)) | EC50 (HT-29 (αvβ5)) [µM] | selectivity for the αvβ3 integrin, in words (HUVEC (αvβ3)) | EC50 (DAOY (αvβ3)) [µM] | biological activity (inhibition of cell adhesion), in words (HUVEC cell line [1]) | inhibit cell adhesion to αv-integrin independent cell adhesion (FN coating) (HUVEC cell line [2]) | inhibit cell adhesion to αv-integrin independent cell adhesion (COL coating) (HUVEC cell line [3]) | activity in all cell systems used in the study, in words (HUVEC cell line [1]; all cell systems used, compound 3 has values for HUVEC only)
N=C(N)NCCC[C@@H]1NC(=O)c2csc(n2)-c2csc(n2)-c2csc(n2)CNC(=O)[C@H](CC(=O)O)NC(=O)CNC1=O [Compound 5, Cyclo-[Arg-Gly-Asp-Thz3X-]] | 63.8 | 6.8 | no blocking activity | 59.1 | selective antagonists of the αvβ3 integrin | 1.86 | active |  |  | 
N=C(N)NCCC[C@@H]1NC(=O)c2csc(n2)-c2csc(n2)CNC(=O)[C@H](CC(=O)O)NC(=O)CNC1=O [Compound 4, Cyclo-[Arg-Gly-Asp-Thz2X-]] | 7.46 | 5.71 | no blocking activity | 53.2 | selective antagonists of the αvβ3 integrin | 0.082 | active |  |  | 
CC(C)[C@H]1C(=O)N[C@@H](CCCNC(=N)N)C(=O)NCC(=O)N[C@@H](CC(=O)O)C(=O)N[C@H](Cc2ccccc2)C(=O)N1C [Cilengitide, reference compound] | 0.56 | 0.068 |  | 2.24 |  | 0.059 |  | none of the compounds, including the reference one (Cilengitide) would inhibit cell adhesion | none of the compounds, including the reference one (Cilengitide) would inhibit cell adhesion | 
N=C(N)NCCC[C@@H]1NC(=O)c2csc(n2)CNC(=O)[C@H](CC(=O)O)NC(=O)CNC1=O [Compound 3, Cyclo-[Arg-Gly-Asp-Thz1X-]] | 31.1 |  |  |  |  |  |  |  |  | inactive
